Source: US9549560B2, “Pesticidal compositions and related methods” (DOW AGROSCIENCES LLC, priority 2013, dated 2017)

Tests used:
[1] = tested on: Green Peach Aphid (Myzus persicae); assay: Bioassay for Green Peach Aphid (GPA) (MYZUPE), foliar spray on cabbage seedlings; format: in vivo; conditions: 72 h, 200 ppm foliar spray, graded after three days, Abbott corrected % control, read-out: % Control (or Mortality) rating, GPA
Experimental: Cabbage seedlings grown in 3-inch pots, with 2-3 small (3-5 cm) true leaves, were used as test substrate. The seedlings were infested with 20-50 GPA (wingless adult and nymph stages) one day prior to chemical application. Four pots with individual seedlings were used for each treatment. Test compounds (2 mg) were dissolved in 2 mL of acetone/methanol (1:1) solvent, forming stock solutions of 1000 ppm test compound. The stock solutions were diluted 5× with 0.025% Tween 20 in H2O to obtain the solution at 200 ppm test compound. A hand-held aspirator-type sprayer was used for spraying a solution to both sides of […] leaves until runoff. Reference plants (solvent check) were sprayed with the diluent only containing 20% by volume of acetone/methanol (1:1) solvent. Treated plants were held in a holding room for three days at approximately 25° C. and ambient relative humidity (RH) prior to grading. Evaluation was conducted by counting the number of live aphids per plant under a microscope. Percent control was measured by using Abbott's correction formula (W. S. Abbott, “A Method of Computing the Effectiveness of an Insecticide,” J. Econ. Entomol. 18 (1925), pp. 265-267) as follows. Corrected % Control=100*(X−Y)/X
X=No. of live aphids on solvent check plants and
Y=No. of live aphids on treated plants
(§1) Biological Data for Green Peach Aphid (GPA) (MYZUPE) and Sweetpotato Whitefly-crawler (WF) (BEMITA)” (See Table Section).

[2] = tested on: Sweetpotato Whitefly-Crawler (Bemisia tabaci); assay: Insecticidal test for Sweetpotato Whitefly-Crawler (WF) (BEMITA) in foliar spray assay on cotton plants; format: in vivo; conditions: 216 h, 200 ppm foliar spray, graded after 9 days, Abbott corrected % control, read-out: % Control (or Mortality) rating, WF
Experimental: Cotton plants (Gossypium hirsutum) grown in 3-inch pots, with 1 small (4-5 cm) true leaves, were used as test substrate. The plants were infested with 200-400 whitefly eggs 4-5 days prior to chemical application. Four pots with individual plants were used for each treatment. Test compounds (2 mg) were dissolved in 1 mL of acetone solvent, forming stock solutions of 2000 ppm test compound. The stock solutions were diluted 10× with 0.025% Tween 20 in H2O (diluents) to obtain the solution at 200 ppm test compound. A hand-held aspirator-type sprayer was used for spraying a solution to both sides of cotton leaves until runoff. Reference plants (solvent check) were sprayed with the diluent only containing 10% by volume of acetone solvent. Treated plants were held in a holding room for 9 days at approximately 25° C. and ambient relative humidity (RH) prior to grading. Evaluation was conducted by counting the number of live 3-4 nymph stage per plant under a microscope. Percent control was measured by using Abbott's correction formula (W. S. Abbott, “A Method of Computing the Effectiveness of an Insecticide,” J. Econ. Entomol. 18 (1925), pp. 265-267) as follows. Corrected % Control=100*(X−Y)/X
X=No. of live nymphs on solvent check plants and
Y=No. of live nymphs on treated plants.
as §1

Row | SMILES | mortality at 200 ppm [1] | mortality at 200 ppm [2]
1 | CCN(C(=O)C(C)CSCCC(F)(F)F)c1cn(-c2ccc[n+]([O-])c2)nc1Cl (centres unmarked) [FA3, 3-(3-Chloro-4-(N-ethyl-2-methyl-3-((3,3,3-trifluoropropyl)thio)propanamido)-1H-pyrazol-1-yl)pyridine 1-oxide] | 80 to 100% | 80 to 100%
2 | C#CCN(C(=O)C(C)CSCCC(F)(F)F)c1cn(-c2ccc[n+]([O-])c2)nc1Cl (centres unmarked) [FA4, 3-(3-Chloro-4-(2-methyl-N-(prop-2-yn-1-yl)-3-((3,3,3trifluoropropyl)thio)propanamido)-1H-pyrazol-1-yl)pyridine 1-oxide] | 80 to 100% | 80 to 100%
3 | CC(CSCCC(F)(F)F)C(=O)N(C)c1cn(-c2ccc[n+]([O-])c2)nc1Cl (centres unmarked) [FA5, 3-(3-Chloro-4-(N,2-dimethyl-3-((3,3,3-trifluoropropyl)thio)propanamido)-1H-pyrazol-1-yl)pyridine 1-oxide] | 80 to 100% | 80 to 100%
4 | CCN(C(=O)C(C)C[S+]([O-])CCC(F)(F)F)c1cn(-c2cc(F)c[n+]([O-])c2)nc1Cl (centres unmarked) [FA6, 3-(3-Chloro-4-(N-ethyl-2-methyl-3-((3,3,3-trifluoropropyl)sulfinyl)propanamido)-1H-pyrazol-1-yl)-5-fluoropyridine 1-oxide] | 80 to 100% | 80 to 100%
5 | C#CCN(C(=O)C(C)C[S+]([O-])CCC(F)(F)F)c1cn(-c2ccc[n+]([O-])c2)nc1Cl (centres unmarked) [FA7, 3-(3-Chloro-4-(2-methyl-N-(prop-2-yn-1-yl)-3-((3,3,3-trifluoropropyl)sulfinyl)propanamido)-1H-pyrazol-1-yl)pyridine 1-oxide] | 80 to 100% | 80 to 100%
6 | CC(C[S+]([O-])CCC(F)(F)F)C(=O)N(C)c1cn(-c2ccc[n+]([O-])c2)nc1Cl (centres unmarked) [FA8, 3-(3-Chloro-4-(N,2-dimethyl-3-((3,3,3-trifluoropropyl)sulfinyl)propanamido)-1H-pyrazol-1-yl)pyridine 1-oxide] | 80 to 100% | 80 to 100%
7 | CCN(C(=O)C(C)C[S+]([O-])CCC(F)(F)F)c1cn(-c2ccc[n+]([O-])c2)nc1Cl (centres unmarked) [FA9, 3-(3-Chloro-4-(N-ethyl-2-methyl-3-((3,3,3-trifluoropropyl)sulfinyl)propanamido)-1H-pyrazol-1-yl)pyridine 1-oxide] | 80 to 100% | 80 to 100%
8 | CCN(C(=O)C(C)C[S+]([O-])CCC(F)(F)F)c1cn(-c2ccc[n+]([O-])c2)nc1C (centres unmarked) [FA10, 3-(4-(N-Ethyl-2-methyl-3-((3,3,3-trifluoropropyl)sulfinyl)propanamido)-3-methyl-1H-pyrazol-1-yl)pyridine 1-oxide] | 80 to 100% | 0 to 80%
9 | CCN(C(=O)CS(C)(=O)=O)c1cn(-c2ccc[n+]([O-])c2)nc1Cl [FA11, 3-(3-chloro-4-(N-ethyl-2-(methylsulfonyl)acetamido)-1H-pyrazol-1-yl)pyridine 1-oxide] | 80 to 100% | 0 to 80%
10 | CC(C(=O)N(C)c1cn(-c2ccc[n+]([O-])c2)nc1Cl)S(C)(=O)=O (centres unmarked) [FA12, 3-(3-chloro-4-(N-methyl-2-(methylsulfonyl)propanamido)-1H-pyrazol-1-yl)pyridine 1-oxide] | 80 to 100% | 80 to 100%
